Experimental data from the kinase profiling compilation of Christmann-Franck et al. (2016).

Target: SGK1 (human) (UniProt O00141)
Assay: Flashplate

Sequence of SGK1 (human) (O00141 whole entry, looked up): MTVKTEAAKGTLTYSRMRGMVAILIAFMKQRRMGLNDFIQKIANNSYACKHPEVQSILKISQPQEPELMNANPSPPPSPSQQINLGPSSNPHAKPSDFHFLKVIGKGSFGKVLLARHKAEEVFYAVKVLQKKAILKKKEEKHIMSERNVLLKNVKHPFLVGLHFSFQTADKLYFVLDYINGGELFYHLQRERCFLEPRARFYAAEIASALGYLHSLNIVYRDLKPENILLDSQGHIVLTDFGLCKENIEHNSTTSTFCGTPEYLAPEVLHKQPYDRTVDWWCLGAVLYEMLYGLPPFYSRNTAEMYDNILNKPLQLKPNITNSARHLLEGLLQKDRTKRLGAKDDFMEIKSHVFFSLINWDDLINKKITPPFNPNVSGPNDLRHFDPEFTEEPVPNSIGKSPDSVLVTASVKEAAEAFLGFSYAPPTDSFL

| SMILES | Ki [µM] |
| --- | --- |
| O=C(Cc1ccc(Cl)cc1)Nc1[nH]nc2c1CCC2 | > 10 |
| CSc1ccc2nc3c(c(Cl)c2c1)CCNC3=O | > 10 |
| COc1cc2ncn(-c3cc(OCc4ccccc4C(F)(F)F)c(C(=O)O)s3)c2cc1OC | > 10 |
| Nc1ncnc2sc(Br)c(-c3ccc(NC(=O)Cc4cccc(Cl)c4)cc3)c12 | > 10 |
| Cc1cccc(NC(=O)Nc2ccc(-c3noc4ncnc(N)c34)cc2)c1 | > 10 |
| C/C(=N\NC(=O)c1nnn(-c2nonc2N)c1-c1ccccc1)c1ccco1 | > 10 |
| Cn1c(=O)c(Oc2ccc(F)cc2F)cc2cnc(NC3CCOCC3)nc21 | > 10 |
| CCCn1cc(-c2cnc(N)c3c(-c4ccc(NC(=O)Nc5cccc(F)c5)cc4)csc23)cn1 | > 10 |
| COc1cc(-c2ccc3c(c2)Nc2ccc(CCOc4ccc(N5CCOCC5)cc4)cc2NC3=O)ccc1OCC(O)CO (stereo not drawn) | > 10 |
| O=C1NC(=O)C(c2cnc3ccccn23)=C1c1cn2c3c(cc(F)cc13)CN(C(=O)N1CCCCC1)CC2 | > 10 |
| CN1CCN(Cc2ccc3c(c2)Cc2c(-c4csc(C#CCOCC5CC5)c4)n[nH]c2-3)CC1 | > 10 |
| Cc1ccc2nccc(NC(=O)Nc3cccc(C(F)(F)F)n3)c2c1 | > 10 |
| C[C@H](Nc1c(Nc2ccncc2)c(=O)c1=O)C1CCCCC1 | > 10 |
| Nc1nccc2scc(-c3ccc(NC(=O)Nc4cccc(Br)c4)cc3)c12 | > 10 |
| O=C1Nc2ccccc2Nc2nnccc21 | > 10 |
| CC(C)(O)CNc1nccc(-c2c(-c3ccc(F)cc3F)nc3c(CC4CC4)nccn23)n1 | > 10 |
| CCCC(=O)Nc1n[nH]c2ccc(-c3cccc(F)c3F)cc12 | > 10 |
| O=C1NC(=O)C(c2cnc3ccccn23)=C1c1cn2c3c(cccc13)CN(C(=O)N1CCOCC1)CC2 | > 10 |
| Cc1cc(C)c(C)c(OCCCc2c(C(=O)O)[nH]c3c(-c4ccccc4C)cccc23)c1 | > 10 |

Next, values leading:

| Ki [µM] | SMILES |
| --- | --- |
| > 10 | O=C(c1cc(Cc2n[nH]c(=O)c3c2CCCC3)ccc1F)N1CCN(c2ncccn2)CC1 |
| > 10 | C[C@@H](Nc1c(Nc2ccncc2)c(=O)c1=O)C(C)(C)C |
| 3.98 | Cc1cccc(NC(=O)Nc2ccc(-c3csc4c(C#CCN)cnc(N)c34)cc2)c1 |
| > 10 | CCOc1nc(C(=O)NCc2ccncc2)cc(N)c1C#N |
| > 10 | CN1CCN([C@H]2CC[C@H](n3cc(-c4ccc(Oc5ccccc5)cc4)c4c(N)ncnc43)CC2)CC1 |
| 10 | COc1ccc(C(=O)Nc2cnc3[nH]cc(-c4ccccc4)c3c2)cc1 |
| > 10 | CC1=NN(c2ccc(C(=O)O)cc2)C(=O)/C1=C/c1c(C)c(C#N)c2nc3ccccc3n2c1O |
| > 10 | O=c1[nH]cc(I)c2nc(-c3ccccc3)cn12 |
| > 10 | Brc1ccc2[nH]nc(-c3ccccc3)c2c1 |
| > 10 | Cc1nsc2[nH]cc(C(=O)O)c(=O)c12 |
| 0.398 | COc1cccc([C@@H](C)NC(=O)c2ccc(-c3ccncc3)cc2)c1 |
| > 10 | CC(=O)c1cccc(-c2cnc3[nH]ccc3c2)c1 |
| > 6.31 | NC(=O)c1ccc(N[C@H]2CCCC[C@H]2N)nc1Nc1cccc(Cl)c1 |
| 2 | COc1cccc(C(=O)Nc2cnc3[nH]cc(-c4ccccc4)c3c2)c1 |
| 2 | NC(=O)c1cc2c(Oc3ccc(Br)cc3)cncc2s1 |
| 0.794 | O=c1nc(-c2cc3c(Oc4ccc(I)cc4)cncc3s2)[nH]o1 |
| 3.16 | NC(=O)c1sc2c(Br)ccc(Cl)c2c1N |
| 0.126 | O=C(N/N=C/c1ccc(O)cc1O)Nc1cccc2nsnc12 |
| 6.31 | Nc1nccc(-c2c(-c3ccc(F)cc3)ncn2C2CCNCC2)n1 |
| 2 | COc1ccc(Nc2nccc(Nc3c(N[C@H](C)C(C)(C)C)c(=O)c3=O)n2)cc1OC |
| 0.398 | Clc1cc(-c2c[nH]c3ncccc23)cc(NCc2ccccc2)n1 |
| 7.94 | CN(C)CC(=O)N[C@H](COc1cncc(-c2ccc3cnccc3c2)c1)Cc1c[nH]c2ccccc12 |
| 3.16 | CC(C)(C(N)=O)n1cc(-c2cnc(N)c3c(-c4ccc(NC(=O)Nc5cccc(F)c5)cc4)csc23)cn1 |
| 0.631 | COc1cccc([C@@H](C)NC(=O)c2ccc(-c3ccncc3F)cc2OC)c1 |
